According to US9809602B2, “Compounds for treating viral infections” (INSTITUT PASTEUR KOREA, priority 2014, dated 2017):

These compounds were tested on genotype 1/2 chimeric cell culture derived HCV (HCVcc) (assay: Genotype 1/2 chimeric HCVcc assay (nano-luciferase, HCV replication)). Conditions: Hepatitis C virus.
Type: cell-based
Protocol: Naïve Huh-7.5 target cells were plated at 2400 cells/well in 25 μL of culture media in 384-well plates (Greiner bio-one, μ clear black). After overnight incubation, compounds serially diluted in 10 μL of cell culture media were added. After 2 h compound treatment, cells were inoculated with 40 μL of genotype 1/2 chimeric cell culture derived HCV (HCVcc) which express structural proteins of an HCV genotype 1a isolate (TN accession number EF621489) and non-structural proteins of HCV genotype 2a (JFH-1) with nano-luciferase reporter. At 72 h post infection, nano-luciferase activity (Nano-Glo™, Promega) and cellular ATP (Cell titer-Glo™, Promega) were measured as a marker for HCV replication and cytotoxicity, respectively. EC50 and CC50 were calculated by non-linear regression analyzing using GraphPad Prism (GraphPad Software).
`O=C(CCCN1CCC(N2CCCCC2)CC1)Nc1ccc(Oc2ccc(C(F)(F)F)cc2)cc1` [Compound 1078] showed an EC50 of 100 to 1000 nM.
With `O=C(NCCCN1CCC(N2CCCCC2)CC1)c1ccc(-c2ccc(C(F)(F)F)cc2)o1` [Compound 1083] the EC50 was 100 to 1000 nM.
`O=C(NCCCN1CCC(N2CCCCC2)CC1)c1ccc(-c2cccc([N+](=O)[O-])c2)cc1` [Compound 1147] showed an EC50 of 100 to 1000 nM.
`O=C(NCCCN1CCC(N2CCCCC2)CC1)c1ccc(-c2ccc(C(F)(F)F)cc2)cc1C(F)(F)F` [Compound 1104] showed an EC50 of 100 to 1000 nM.
`CN(C)c1ccc(-c2ccc(C(=O)NCCCN3CCC(N4CCCCC4)CC3)c(Cl)c2)cc1` [Compound 1154] showed an EC50 of 100 to 1000 nM.
With `Cc1cc(NC(=O)CCCN2CCC(N3CCCCC3)CC2)ccc1-c1ccc(C(F)(F)F)cc1` [Compound 1152] the EC50 was < 100 nM.
`COc1ccc(-c2ccc(C(=O)NCCCN3CCC(N4CCCCC4)CC3)cc2)c(F)c1` [Compound 1131] was tested, and the EC50 was 100 to 1000 nM.
With `O=S(=O)(NCCCN1CCC(N2CCCCC2)CC1)c1ccc(-c2ccc(C(F)(F)F)cc2)cc1` [Compound 1093] the EC50 was 100 to 1000 nM.
With `O=C(NCCCN1CCC(C2CCCCC2)CC1)c1ccc(Oc2ccccc2)cc1` [Compound 1071] the EC50 was 1000 to 10000 nM.
`COc1cccc(-c2ccc(C(=O)NCCCN3CCC(N4CCCCC4)CC3)cc2)c1` [Compound 1018] gave an EC50 of 100 to 1000 nM.
For `CC(=O)Nc1ccc(-c2ccc(C(=O)NCCCN3CCC(N4CCCCC4)CC3)cc2)cc1` [Compound 1140], the EC50 was > 10000 nM.
`O=C(NCCC(=O)N1CCC(N2CCCCC2)CC1)c1ccc(Oc2ccccc2)cc1` [Compound 1053] was tested, and the EC50 was 1000 to 10000 nM.
Compound `O=C(NCCCN1CCC(N2CCCCC2)CC1)c1ccc(Oc2cccc(C(F)(F)F)c2)cc1` [Compound 1108] has an EC50 of 100 to 1000 nM.
`CN(C)c1ccc(-c2ccc(C(=O)NCCCN3CCC(N4CCCCC4)CC3)cc2)cc1` [Compound 1125] showed an EC50 of 100 to 1000 nM.
With `O=C(NCCCN1CCC(N2CCCCC2)CC1)c1ccc(-c2ccc(C(F)(F)F)cc2)cn1` [Compound 1102] the EC50 was 100 to 1000 nM.
`O=C(NCCCN1CCC(N2CCCCC2)CC1)c1ccc(Oc2ccc(F)cc2)cc1` [Compound 1033] gave an EC50 of 1000 to 10000 nM.
With `O=C(NCCCN1CCC(N2CCCCC2)CC1)c1ccc(Oc2cccc(F)c2)cc1` [Compound 1062] the EC50 was > 10000 nM.
Compound `O=S(=O)(NCCCN1CCC(N2CCCCC2)CC1)c1ccc(-c2ccc(OC(F)(F)F)cc2)cc1` [Compound 1092] has an EC50 of 100 to 1000 nM.
`O=C(NCCCN1CCC(c2ccncc2)CC1)c1ccc(Oc2ccccc2)cc1` [Compound 1055] was tested, and the EC50 was > 10000 nM.
In the case of `O=C(NCCCN1CCC(N2CCCCC2)CC1)c1ccc2cc[nH]c2c1` [Compound 1008], the EC50 is reported as > 10000 nM.
For `NS(=O)(=O)c1ccc(-c2ccc(C(=O)NCCCN3CCC(N4CCCCC4)CC3)cc2)cc1` [Compound 1128], the EC50 was > 10000 nM.
`O=C(NCCCN1CCC(N2CCCCC2)CC1)c1ccc(-c2ccc(C(F)(F)F)cc2)s1` [Compound 1081] was tested, and the EC50 was 100 to 1000 nM.
With `O=S(=O)(NCCCCN1CCC(N2CCCCC2)CC1)c1ccc(-c2ccccc2)cc1` [Compound 1091] the EC50 was 100 to 1000 nM.
Work on `O=C(NCCCN1CCC(NC2CCCCC2)CC1)c1ccc(Oc2ccccc2)cc1` [Compound 1079] yielded an EC50 of 100 to 1000 nM.
With `O=C(NCCN1CCC(N2CCCCC2)CC1)c1ccc(Oc2ccccc2)cc1` [Compound 1044] the EC50 was 1000 to 10000 nM.
`O=C(NCCNc1ccc(N2CCCCC2)cc1)c1ccc(Oc2ccccc2)cc1` [Compound 1057] was tested, and the EC50 was 1000 to 10000 nM.
Work on `O=C(NCCCN1CCC(N2CCCCC2)CC1)c1ccc(-c2ccc(C(F)(F)F)cc2)c(Cl)c1` [Compound 1085] yielded an EC50 of 100 to 1000 nM.
Work on `O=C(NCCCN1CCC(N2CCCCC2)CC1)c1ccc(-c2ccc(S(=O)(=O)N3CCOCC3)cc2)cc1` [Compound 1144] yielded an EC50 of 1000 to 10000 nM.

Same assay, conditions: Hepatitis C virus, Huh7.5, 72 h
For `CC(C)(C)OC(=O)c1c(NC(=O)NCc2c(C(F)(F)F)sc3c2CCN(CCO)C3)sc2c1CCCC2` [Compound 373], the EC50 was < 100 nM.
In the case of `CCN1CCc2c(sc(-n3cccc3)c2CNC(=O)Nc2sc3c(c2C(=O)NCC(C)C)CCCC3)C1` [Compound 80], the EC50 is reported as < 100 nM.
With `CCOC(=O)c1c(NC(=O)NCc2c(C(F)(F)F)sc3c2CCNC3)sc2c1CCC(C)C2` (stereo not shown) [Compound 166] the EC50 was < 100 nM.
`CCN1CCc2c(sc(-n3cccc3)c2CNC(=O)Nc2sc(C)c(C)c2C(=O)OC(C)C)C1` [Compound 195] was tested, and the EC50 was < 100 nM.
Compound `CCOC(=O)c1c(NC(=O)NCc2ccc(CN(C)C)cc2)sc2c1CCCC2` [Compound 29] has an EC50 of 100 to 1000 nM.
For `Cc1sc(NC(=O)NCc2c(-c3ccc(Cl)cc3)sc3c2CCNC3)c(C(=O)OC(C)(C)C)c1C` [Compound 369], the EC50 was < 100 nM.
In the case of `CN1CCc2c(sc(-n3cccc3)c2CNC(=O)Nc2sc3c(c2C(=O)OC2CCCC2)CCCC3)C1` [Compound 221], the EC50 is reported as < 100 nM.
Work on `Cc1sc(NC(=O)C(=O)NCc2c(C(F)(F)F)sc3c2CCNC3)c(C(=O)OC(C)(C)C)c1C` [Compound 360] yielded an EC50 of 100 to 1000 nM.
Compound `CCOC(=O)c1c(NC(=O)NCc2c(-n3cccc3)sc3c2CCN(CC)C3)sc(OC)c1C` [Compound 32] has an EC50 of 100 to 1000 nM.
`CN1CCc2c(sc(Br)c2CNC(=O)Nc2sc3c(c2C(=O)OC(C)(C)C)CCCC3)C1` [Compound 185] was tested, and the EC50 was < 100 nM.
For `CCOC(=O)c1c(NC(=O)NCc2c(-n3cccc3)sc3c2CCN(CC)C3)sc2c1C(C)CCC2` (stereo not shown) [Compound 151], the EC50 was < 100 nM.
For `CC(C)(C)OC(=O)c1c(NC(=O)NCc2c(C(F)(F)F)sc3c2CCNC3)sc2c1CCCCC2` [Compound 245], the EC50 was < 100 nM.
`CCOC(=O)c1c(NC(=O)NCc2c(-n3cccc3)sc3c2CCN(C)C3)sc2c1CCC(C)C2` (stereo not shown) [Compound 154] was tested, and the EC50 was < 100 nM.
In the case of `CCOC(=O)c1c(NC(=O)NCc2c(Br)sc3c2CCNC3)sc2c1CCC(C)C2` (stereo not shown) [Compound 165], the EC50 is reported as < 100 nM.
`CC(C)(C)OC(=O)c1c(NC(=O)NCc2c(Br)sc3c2CCNC3)sc2c1CCC2` [Compound 224] was tested, and the EC50 was < 100 nM.
`CCOC(=O)c1c(NC(=O)NCc2c(-n3cccc3)sc3c2CCCC3)sc2c1CCCC2` [Compound 4] was tested, and the EC50 was < 100 nM.
`CCOC(=O)c1cc2ccccc2cc1NC(=O)NCc1c(-n2cccc2)sc2c1CCN(CC)C2` [Compound 45] gave an EC50 of 1000 to 10000 nM.
In the case of `CC1Cc2c(sc(NC(=O)NCc3c(Br)sc4c3CCNC4)c2C(=O)OC(C)(C)C)C(C)C1` (stereo not shown) [Compound 267], the EC50 is reported as < 100 nM.
Work on `Cc1sc(NC(=O)NCc2c(-n3c(C)ccc3C)sc3c2CCNC3)c(C(=O)OC(C)(C)C)c1C` [Compound 352] yielded an EC50 of 1000 to 10000 nM.
With `Cc1nnc(-c2c(NC(=O)NCc3c(C(F)(F)F)sc4c3CCNC4)sc(C)c2C)o1` [Compound 149] the EC50 was < 100 nM.
For `COC(=O)c1c(NC(=O)NCc2c(Br)sc3c2CC[N+](C)(C)C3)sc2c1CCCC2` [Compound 176], the EC50 was < 100 nM.
With `CC1Cc2c(sc(NC(=O)NCc3c(-n4cccc4)sc4c3CCN(C)C4)c2C(=O)OC(C)(C)C)C(C)C1` (stereo not shown) [Compound 293] the EC50 was < 100 nM.
For `CC(C)N1CCc2c(sc(Br)c2CNC(=O)Nc2sc3c(c2C(=O)OC(C)(C)C)CCCC3)C1` [Compound 187], the EC50 was < 100 nM.
For `CCOC(=O)c1c(NC(=O)NCc2c(C(F)(F)F)sc3c2CCNC3)sc2c1CCC(F)(F)C2` [Compound 219], the EC50 was < 100 nM.
With `Cc1sc(NC(=O)NCc2c(-c3cccc(Cl)c3)sc3c2CCNC3)c(C(=O)OC(C)(C)C)c1C` [Compound 363] the EC50 was < 100 nM.
In the case of `Cc1cc(C(=O)OC(C)(C)C)c(NC(=O)NCc2c(C(F)(F)F)sc3c2CCNC3)s1` [Compound 347], the EC50 is reported as < 100 nM.
With `O=C(NCc1c(-n2cccc2)sc2c1CCNC2)Nc1sc2c(c1C(=O)NCc1ccccc1)CCCC2` [Compound 82] the EC50 was 100 to 1000 nM.
`CC(C)OC(=O)c1c(NC(=O)NCc2c(C(F)(F)F)sc3c2CCNC3)sc2c1CCCC2` [Compound 167] was tested, and the EC50 was < 100 nM.
In the case of `O=C(NCc1c(-n2cccc2)sc2c1CCNC2)Nc1sc2c(c1C(=O)NCC1CCCCC1)CCCC2` [Compound 83], the EC50 is reported as 1000 to 10000 nM.
`CCOC(=O)c1c(NC(=O)NCc2c(-n3cccc3)sc3c2CCN(C)C3)sc2c1CCCC2` [Compound 67] was tested, and the EC50 was < 100 nM.
In the case of `CCN1CCc2c(sc(-n3cccc3)c2CNC(=O)Nc2sc3c(c2C(=O)OC(C)(C)C)CCC3)C1` [Compound 114], the EC50 is reported as < 100 nM.
With `CC(C)(C)OC(=O)c1c(NC(=O)NCc2c(C(F)(F)F)sc3c2CCNC3)sc2c1CCOC2F` (stereo not shown) [Compound 335] the EC50 was < 100 nM.
For `CCN1CCc2c(sc(-n3cccc3)c2CNC(=O)Nc2sc3c(c2C(N)=O)CCCC3)C1` [Compound 37], the EC50 was 100 to 1000 nM.
With `CC(C)(C)OC(=O)c1c(NC(=O)NCc2c(-c3cccnc3)sc3c2CCNC3)sc2c1CCCC2` [Compound 123] the EC50 was < 100 nM.
For `CCOC(=O)c1c(NC(=O)NCc2c(-n3cccc3)sc3c2CCNC3)sc2ccccc12` [Compound 63], the EC50 was 100 to 1000 nM.
For `CC(C)(C)OC(=O)c1c(NC(=O)NCc2c(-c3ccoc3)sc3c2CCNC3)sc2c1CCCC2` [Compound 183], the EC50 was < 100 nM.
`CC(C)OC(=O)c1c(NC(=O)NCc2c(C(F)(F)F)sc3c2CCN(C)C3)sc2c1CCCC2` [Compound 169] was tested, and the EC50 was < 100 nM.
For `CCc1sc2c(c1CNC(=O)Nc1sc(C)c(C)c1C(=O)OC(C)(C)C)CCNC2` [Compound 288], the EC50 was < 100 nM.
With `CCOC(=O)c1c(NC(=O)NCc2c(C(F)(F)F)sc3c2CCNC3)sc2c1CC(C)CC2` (stereo not shown) [Compound 194] the EC50 was < 100 nM.
With `CCOC(=O)c1c(NC(=S)NCc2c(-n3cccc3)sc3c2CCN(CC)C3)sc2c1CCCC2` [Compound 44] the EC50 was < 100 nM.
In the case of `CCN1CCc2c(sc(-n3cccc3)c2CNC(=O)Nc2sc3c(c2C(=O)OC)CCCC3)C1` [Compound 127], the EC50 is reported as < 100 nM.
In the case of `CCN1CCc2c(sc(-n3cccc3)c2CNC(=O)Nc2sc3c(c2C(=O)OC(C)C)CCCC3)C1` [Compound 157], the EC50 is reported as < 100 nM.
`Cc1sc(NC(=O)NCc2c(-c3cccc(F)c3)sc3c2CCNC3)c(C(=O)OC(C)C)c1C` [Compound 251] was tested, and the EC50 was < 100 nM.
With `Cc1sc(NC(=O)NCc2c(-c3ccc(F)cc3)sc3c2CCNC3)c(C(=O)OC(C)(C)C)c1C` [Compound 368] the EC50 was 100 to 1000 nM.
With `COC(=O)c1c(NC(=O)NCc2c(C(F)(F)F)sc3c2CCNC3)sc2c1CCCC2` [Compound 129] the EC50 was < 100 nM.
